Laboratory results reported in patent US7585875B2, “Substituted pyrazolo[1,5-a]pyridine compounds and their methods of use” (Avigen, Inc., priority 2006, dated 2009).
Read-outs that look alike come from different tables or passages of the source.

Key:
[1] = target: phosphodiesterase (PDE) enzyme derived from bovine brain; test: Inhibition of PDE (PDELight kit, cAMP substrate); type: biochemical; conditions: PDE from brain extract, cAMP as substrate
Experimental: In a 96-well plate, phosphodiesterase (PDE) enzyme (0.5-1 mU/well) derived from bovine brain (Sigma) was combined with 5 uM cAMP substrate (Sigma). Test compounds (0-200 uM) or vehicle (0.5% DMSO) were added to the enzyme/substrate and incubated for 1 hour. Using a PDELight® kit (Cambrex), the amount of AMP produced in the reaction from the hydrolysis of cAMP was quantified using PDELight AMP Detection Reagent which converts the AMP directly to ATP. The assay uses luciferase, which catalyses the formation of light from the newly formed ATP and luciferin. The luminescence was read on a Victor Light 1420 luminometer. IC50 calculations were plotted using a nonlinear regression curve fit.

[2] = tested on: mechanical allodynia after chronic constriction injury (CCI) to the sciatic nerve; test: Mechanical allodynia by response to von Frey fibers, rat chronic constriction injury (CCI) model; type: in vivo, male Sprague-Dawley rats; conditions: 2 hr post dosing
From the text: Chronic Constriction Injury: Heat and cold allodynia responses as well as mechanical allodynia sensations can be evaluated as described below in rats having a chronic constriction injury (CCI). A unilateral mononeuropathy is produced in rats using the chronic constriction injury model described in Bennett et al., Pain (1988) 33:87-107. CCI is produced in anesthetized rats as follows. The lateral aspect of each rat's hind limb is shaved and scrubbed with Nolvasan. Using aseptic techniques, an incision is made on the lateral aspect of the hind limb at the mid-thigh level. The biceps femoris is bluntly dissected to expose the sciatic nerve. On the right hind limb of each rat, four loosely tied ligatures (for example, Chromic gut 4.0; Ethicon, Johnson and Johnson, Somerville, N.J.) are made around the sciatic nerve approximately 1-2 mm apart. On the left side of each rat, an identical dissection is performed except that the sciatic nerve is not ligated (sham). The muscle is closed with a continuous suture pattern with, e.g., 4-0 Vicryl (Johnson and Johnson, Somerville, N.J.) and the overlying skin is closed with wound clips. The rats are ear-tagged for identification purposes and returned to animal housing.
To induce allodynia, male Sprague-Dawley rats underwent chronic constriction injury (CCI) to the sciatic nerve as described by Bennett and Xie, Pain 1988; 33(1):87-107. The plantar surface of the hind paws was stimulated with von Frey filaments (Stoelting) to induce a withdrawal response by blinded personnel. The bending force of fiber required to induce a 50% withdrawal response was calculated following CCI surgery (pre-dosing baseline). N=5-6 allodynic rats received a single intraperitoneal administration of test compound or vehicle. Two hours post-dosing, 50% paw withdrawal threshold was determined again by blinded testers using von Frey filaments. The change in 50% withdrawal threshold relative to pre-dosing baseline is reported in Table 2 for various substituted pyrazolo[1,5-a]pyridine compounds of the invention.

[3] = tested on: IL-1β production in LPS-stimulated human peripheral blood mononuclear cells; test: Inhibition of LPS-stimulated IL-1β release from PBMCs; type: cell-based; conditions: PBMC, LPS-stimulated cytokine release from PBMCs
Experimental: (§1) IC50 values were determined for representative compounds of the invention based upon their ability to inhibit LPS-induced cytokine production in human peripheral blood mononuclear cells. Human PBMCs (peripheral blood mononuclear cells) were isolated over a Ficoll gradient from buffy coats obtained from the local Red Cross. 10^6 PBMC cells/well were seeded in 24-well tissue culture plates in RPMI 1640 medium supplemented with 10% human serum, hepes buffer and sodium pyruvate. The cells were treated with 0.1% DMSO (vehicle) or test compounds (1, 10, and 100 uM) 30 minutes prior to activation with LPS (lipopolysaccharide) (E. Coli) at 10 ng/mL. 6-10 hours post LPS stimulation the culture supernatants were collected and levels of cytokines TNF-α and IL-1β were quantified by ELISA (R&D Systems) and/or Luminex (Linco Diagnostics). IC50 calculations were plotted using a nonlinear regression curve fit for exemplary substituted pyrazolo[1,5-a]pyridine compounds of the invention; results are provided in Table 2.

[4] = tested on: TNF-α production in LPS-stimulated human peripheral blood mononuclear cells; test: Inhibition of LPS-stimulated TNF-α release from PBMCs; type: cell-based; conditions: PBMC
Experimental: as §1

[5] = LPS-stimulated cytokine release from PBMCs, read-out: TNF-α (IC50)
[6] = less than or equal to about 50 μM, PBMCs, read-out: IC50, LPS-induced cytokine production (cytokine not specified)

| SMILES | IC50 [1] [µM] | Mechanical Allodynia ΔWT (change from pre-dosing 50% withdrawal threshold) ([2]; 10 mg/kg IP) | melting point [°C] | IC50 [3] [µM] | IC50 [4, 5] [µM] | IC50 [4, 6] [µM] | Mechanical Allodynia ΔWT (change from pre-dosing 50% withdrawal threshold) ([2]; 20 mg/kg IP) | Mechanical Allodynia ΔWT (change from pre-dosing 50% withdrawal threshold) ([2]; 25 mg/kg PO) | Mechanical Allodynia ΔWT (change from pre-dosing 50% withdrawal threshold) ([2]; 40 mg/kg IP) |
| --- | --- | --- | --- | --- | --- | --- | --- | --- | --- |
| CCC(=O)c1c(C(C)C)nn2ccccc12 [Compound 1001, 1-(2-isopropylpyrazolo[1,5-a]pyridin-3-yl)propan-1-one] | 58 | 0 grams | 41 to 43 | > 100 | 13 | ≤ 50 | – | – | – |
| CC(C)c1nn2ccccc2c1C(O)C(C)C (centres unmarked) [Compound 1002, 1-(2-isopropylpyrazolo[1,5-a]pyridin-3-yl)-2-methylpropan-1-ol] | > 200 | 0.79 grams | 69 | > 100 | > 100 | – | – | – | – |
| CC(C)C(=NO)c1c(C(C)C)nn2ccccc12 [Compound 1012, 1-(2-isopropylpyrazolo[1,5-a]pyridin-3-yl)-2-methylpropan-1-one oxime] | 40 | 1.56 grams | – | 99 | > 100 | – | – | – | – |
| CC(C)C(=O)c1c(-c2ccccc2)nn2ccccc12 [Compound 1015, 2-methyl-1-(2-phenylpyrazolo[1,5-a]pyridin-3-yl)propan-1-one] | 80 | 0.51 grams | – | > 100 | > 100 | – | – | – | – |
| CC(C)C(=NO)c1c(-c2ccccc2)nn2ccccc12 [Compound 1016, 2-methyl-1-(2-phenylpyrazolo[1,5-a]pyridin-3-yl)propan-1-one oxime] | 75 | 0 grams | – | > 100 | > 100 | – | – | – | – |
| CC(C)C(=O)c1c(-c2ccc(F)cc2)nn2ccccc12 [Compound 1018, 1-(2-(4-fluorophenyl)pyrazolo[1,5-a]pyridin-3-yl)-2-methylpropan-1-one] | > 200 | 0 grams | – | > 100 | 32.7 | ≤ 50 | – | – | – |
| CC(C)C(=O)c1c(-c2ccc(F)cc2)nn2cc(C(F)(F)F)ccc12 [Compound 1027, 1-(2-(4-fluorophenyl)-6-(trifluoromethyl)pyrazolo[1,5-a]pyridin-3-yl)-2-methylpropan-1-one] | > 200 | 0 grams | 129 to 130 | – | – | – | – | – | – |
| CC(C)c1nn2ccccc2c1C(=O)C1CC1 [Compound 1046, cyclopropyl(2-isopropylpyrazolo[1,5-a]pyridin-3-yl)methanone] | 33.3 | 0 grams | 72 | – | – | – | – | – | – |
| O=C(c1c(C2CC2)nn2ccccc12)C1CC1 [Compound 1047, cyclopropyl(2-cyclopropylpyrazolo[1,5-a]pyridin-3-yl)methanone] | 15.4 | 0.68 grams | 102 to 104 | – | – | – | – | – | – |
| CC(C)C(=O)c1c(C(C)C)nn2ccccc12 [compound 411, 3-isobutyryl-2-isopropylpyrazolo[1,5-a]pyridine, reference compound] | 10.3 | 2.31-3.53 grams | – | 17.9 | 5 | – | – | – | – |
| CC(C)c1nn2ccccc2c1C(=O)C(C)(C)O [compound 1004, 2-hydroxy-1-(2-isopropylpyrazolo[1,5-a]pyridin-3-yl)-2-methylpropan-1-one] | 12.6 | 0.48 grams | – | > 100 | 28.8 | ≤ 50 | – | – | – |
| CC(C)C(=O)c1c(C(C)C)nn2cc(O)ccc12 [compound 1006, 1-(6-hydroxy-2-isopropylpyrazolo[1,5-a]pyridin-3-yl)-2-methylpropan-1-one] | 29.6 | 0 grams | – | 14.7 | 1.3 | ≤ 50 | – | – | – |
| CC(N)C(=O)c1c(C(C)C)nn2ccccc12 (centres unmarked) [compound 1013, 2-amino-1-(2-isopropylpyrazolo[1,5-a]pyridin-3-yl)propan-1-one] | > 200 | 10 mg/kg: 1.04 grams | – | > 100 | 13.6 | ≤ 50 | 20 mg/kg: 1.33 grams | 25 mg/kg PO: 1.39 grams | 40 mg/kg: 3.16 grams |
| CC(C)C(=NOC(N)=O)c1c(C(C)C)nn2ccccc12 [compound 1014, 1-(2-isopropylpyrazolo[1,5-a]pyridin-3-yl)-2-methylpropan-1-one O-carbamoyl oxime] | 100 | 10 mg/kg: 2.18 grams | – | 1 | 1.3 | ≤ 50 | 20 mg/kg: 3.73 grams | – | – |
| CC(C)C(=NO)c1c(-c2ccc(F)cc2)nn2ccccc12 [compound 1019, 1-(2-(4-fluorophenyl)pyrazolo[1,5-a]pyridin-3-yl)-2-methylpropan-1-one oxime] | 40 | 1.4 grams | – | > 100 | > 100 | – | – | – | – |
| CC(C)C(=O)c1c(C2CC2)nn2ccccc12 [compound 1050, 1-(2-cyclopropylpyrazolo[1,5-a]pyridin-3-yl)-2-methylpropan-1-one] | – | 0 grams | 108 to 109 | – | – | – | – | – | – |
| CC(CN1CCCCC1)C(=O)c1c(C(C)C)nn2ccccc12.Cl (centres unmarked) [compound 1063, 1-(2-isopropylpyrazolo[1,5-a]pyridin-3-yl)-2-methyl-3-(piperidin-1-yl)propan-1-one hydrochloride] | – | 0 grams | 166 to 167 | – | – | – | – | – | – |
| CC(CN)C(=O)c1c(C(C)C)nn2ccccc12.Cl (centres unmarked) [compound 1065, 3-amino-1-(2-isopropylpyrazolo[1,5-a]pyridin-3-yl)-2-methylpropan-1-one hydrochloride] | – | 0.91 grams | 110 to 115 | – | – | – | – | – | – |
| CC(CNCc1ccccc1)C(=O)c1c(C(C)C)nn2ccccc12.Cl (centres unmarked) [compound 1066, 3-(benzylamino)-1-(2-isopropylpyrazolo[1,5-a]pyridin-3-yl)-2-methylpropan-1-one hydrochloride] | – | 0.1 grams | 171 to 175 | – | – | – | – | – | – |
